# Test results from paper PMC9124818 (Pharmacology Research & Perspectives, 2022).
# Read-outs that look alike come from different tables or passages of the source.
# Key:
# [1] = biological target: CYP2D6 (Homo sapiens, UniProt P10635); assay: Time- and metabolism-dependent inhibition, 30-min preincubation with or without NADPH (dextromethorphan O-demethylation); details: for IC50: human liver microsomes; for inhibition at 30 min: both, human, pooled human liver microsomes, pH 7.4, probe dextromethorphan (O-demethylation)
# Experimental: These preincubations allowed assessment of the NADPH‐dependence of any time‐dependent CYP450 inhibition. Following the 30‐min preincubation, the NADPH‐generating system and/or marker substrate was added, and incubations were continued as described previously to measure residual CYP450 enzyme activity.
# [2] = biological target: T1, OAT3 (Homo sapiens, UniProt Q8TCC7); assay: Transporter inhibition, uptake of [3H]-estrone-3-sulfate in HEK293 cells; format: in vitro ADME
# T1 construct: host or cells: HEK293
# T1 sequence (Q8TCC7 1-542): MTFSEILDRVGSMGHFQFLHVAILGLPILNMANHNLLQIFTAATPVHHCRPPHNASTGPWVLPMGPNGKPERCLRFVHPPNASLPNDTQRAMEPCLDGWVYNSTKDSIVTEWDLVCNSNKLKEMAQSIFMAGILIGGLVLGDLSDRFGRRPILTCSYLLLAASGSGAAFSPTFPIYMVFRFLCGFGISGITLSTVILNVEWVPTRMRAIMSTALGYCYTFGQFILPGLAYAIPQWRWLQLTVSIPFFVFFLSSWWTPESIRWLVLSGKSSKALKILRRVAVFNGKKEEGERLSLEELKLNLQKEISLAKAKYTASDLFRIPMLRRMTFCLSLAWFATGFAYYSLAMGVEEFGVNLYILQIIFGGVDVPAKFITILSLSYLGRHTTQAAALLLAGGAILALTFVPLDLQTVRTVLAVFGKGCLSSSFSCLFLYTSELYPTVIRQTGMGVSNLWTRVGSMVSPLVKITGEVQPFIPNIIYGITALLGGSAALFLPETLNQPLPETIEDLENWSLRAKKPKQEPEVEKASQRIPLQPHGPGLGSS
# Experimental: (§1) The test compound (FFA or nFFA) or the positive control substrate ([…], respectively) was added to the donor chamber. […] Cells were then washed, lysed with scintillation cocktail, and analyzed for the probe substrate with a MicroBeta scintillation counter (PerkinElmer, Hopkinton, MA). Transcellular transporter assay conditions are described in Supplemental Table 1. Calculation of IC50 values was based on bidirectional permeability of probe substrate with and without the inhibitor in MDCKII cells expressing BCRP and in Caco‐2 cells expressing P‐gp, and transporter‐dependent uptake of probe substrate in HEK293 cells expressing all other transporters (Supplemental Table 1).
# The transporter-specific uptake of the probe substrate in cells was determined by subtracting the accumulation in the control cells from the accumulation in the transporter-expressing cells.
# [3] = tested on: CYP1A2 mRNA; assay: CYP450 induction in cultured human hepatocytes, mRNA by qRT-PCR; format: cell-based; details: for Fold‐change method: Fold change: highest dose tested (40 µM fenfluramine, 50 µM norfenfluramine); for Fold‐change method: % of control: percent of positive control induction of mRNA
# Experimental: Each PCR was performed in triplicate.
# [4] = tested on: CYP2B6 mRNA; assay: as above; format: cell-based; details: for CYP2B6 induction (abstract): cultured human hepatocytes; for Fold‐change method: Fold change: highest dose tested (40 µM fenfluramine, 50 µM norfenfluramine); for Basic kinetic model: R3: per FDA Guidance (2020); for Fold‐change method: % of control: percent of positive control induction of mRNA; for Basic kinetic model: Emax (fold) / EC50 / EC50 at 3 days: ± standard error; for Basic kinetic model: Emax (fold): fit of fold‐change −1 values; for EC50 / EC50 at 3 days: read-out: Basic kinetic model: EC50; for EC50 at 3 days: human, cultured cryopreserved hepatocytes
# Experimental: Cells were then harvested to isolate RNA, which was analyzed by quantitative reverse transcription‐polymerase chain reaction (qRT‐PCR) for induction of CYP1A2, CYP2B6, and CYP3A4 mRNA levels. Total RNA was phase extracted with TRIzol followed by purification with an RNeasy Mini Kit (Qiagen Inc., Germantown, MD). Quantitative PCR was performed in triplicate with a 7900HT Fast Real Time PCR System, an Applied Biosystems Universal Master Mix, and TaqMan® Gene Expression Assays. The quantity of target cDNA relative to control cDNA (GAPDH) was determined by the ΔΔCT method (Applied Biosystems User Bulletin #2). Relative quantitation measures the change in mRNA expression in a test sample relative to that in the control sample (i.e., DMSO). This method assumes that the efficiency of target amplification and the efficiency of endogenous control amplification are approximately equal.
# mRNA assessment was conducted using a quantitative reverse transcription-polymerase chain reaction (qRT-PCR) according to the Applied Biosystems protocol. Each PCR was performed in triplicate. A Primer Mix was prepared for each Gene Expression assay. A typical Primer Mix contained TaqMan Fast Advanced Master Mix (1X), Gene Expression Assay (1X, 900 nM forward and reverse primers) and ribonuclease (RNase)-free water. The Reaction Mix was prepared by adding the Primer Mix to cDNA. A percentage of samples (no less than 10%) included NACs. […] The relative quantity of the target cDNA compared with that of the control cDNA (GAPDH) was determined by the ΔΔCt method (Applied Biosystems User Bulletin #2). Relative quantitation measures the change in mRNA expression in a test sample relative to that in a control sample (eg, dimethyl sulfoxide [DMSO]). This method assumes that the efficiency of the target amplification and the efficiency of the endogenous control amplification are approximately equal.
# This software analyzes relative gene expression using the comparative Ct method (ΔΔCt), which relates the PCR signal of the target transcript to the PCR signal of the target in an untreated control. Both the treated sample and the untreated control signals are normalized to the endogenous control (GAPDH), for which expression is not affected by treatment and expression is constant throughout the tissue being tested.
# The level of mRNA expression relative to the positive control was calculated as follows: […]
# [5] = biological target: CYP2C9 (Homo sapiens, UniProt P11712); assay: Direct CYP450 inhibition in human liver microsomes (diclofenac 4'-hydroxylation)
# Source text: A mixed‐gender pool of 200 individual human liver microsomal samples was used.
# This LIMS utilizes the Levenberg-Marquardt algorithm to perform nonlinear regression fitting of the data to the following 4-parameter sigmoidal-logistic IC50 equation:
# As percent of control values are utilized, the Min is set to 0 and the Max is set to 100 (or other values, as appropriate). […] Therefore, when an IC50 value falls outside the concentration range studied, the IC50 values are reported to be greater than the highest concentrations of test article evaluated.
# [6] = tested on: CYP450 enzymes; assay: Time- and metabolism-dependent CYP450 inhibition in human liver microsomes; format: in vitro ADME; details: compared to direct inhibition
# [7] = biological target: T2, P‐gp (Homo sapiens, UniProt P08183); assay: Transporter inhibition, bidirectional permeability of digoxin in Caco-2 cells; format: in vitro ADME
# T2 construct: host or cells: Caco-2
# Experimental: as §1
# The net flux for human epithelial colorectal adenocarcinoma cells (Caco-2; P-gp) and MDCKII-BCRP inhibition determination was calculated according to the equation: […]
# [8] = all three hepatocyte cultures, FFA up to 40 μM, nFFA 50 μM
# Sequence of CYP2C9 (P11712 whole entry): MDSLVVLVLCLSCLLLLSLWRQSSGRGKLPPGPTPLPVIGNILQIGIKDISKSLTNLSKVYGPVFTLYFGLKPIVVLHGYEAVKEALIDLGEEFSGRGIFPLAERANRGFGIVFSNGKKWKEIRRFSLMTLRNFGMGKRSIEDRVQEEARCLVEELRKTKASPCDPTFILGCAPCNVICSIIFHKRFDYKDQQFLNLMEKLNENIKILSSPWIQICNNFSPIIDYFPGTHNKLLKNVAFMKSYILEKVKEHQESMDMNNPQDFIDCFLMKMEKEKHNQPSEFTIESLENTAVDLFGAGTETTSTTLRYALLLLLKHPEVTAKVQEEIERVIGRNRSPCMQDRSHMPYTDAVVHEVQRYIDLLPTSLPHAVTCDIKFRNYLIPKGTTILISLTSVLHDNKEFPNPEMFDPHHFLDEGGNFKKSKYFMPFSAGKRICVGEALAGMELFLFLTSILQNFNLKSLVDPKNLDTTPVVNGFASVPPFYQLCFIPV
# Sequence of CYP2D6 (P10635 whole entry): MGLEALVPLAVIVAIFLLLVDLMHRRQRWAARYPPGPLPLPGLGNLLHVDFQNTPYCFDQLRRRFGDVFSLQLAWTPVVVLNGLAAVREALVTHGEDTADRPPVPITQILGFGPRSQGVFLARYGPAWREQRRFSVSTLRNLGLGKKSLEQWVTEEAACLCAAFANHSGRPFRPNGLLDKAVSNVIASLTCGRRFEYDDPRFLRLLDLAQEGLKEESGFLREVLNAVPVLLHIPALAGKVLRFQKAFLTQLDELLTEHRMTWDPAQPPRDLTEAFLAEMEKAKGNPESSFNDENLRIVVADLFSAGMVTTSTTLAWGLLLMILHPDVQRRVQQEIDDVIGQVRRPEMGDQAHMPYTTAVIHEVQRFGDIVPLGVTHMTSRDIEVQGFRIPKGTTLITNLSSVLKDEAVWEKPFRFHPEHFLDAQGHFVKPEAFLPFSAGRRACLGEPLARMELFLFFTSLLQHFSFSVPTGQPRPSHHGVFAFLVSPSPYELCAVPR
# T2 sequence (P08183 whole entry): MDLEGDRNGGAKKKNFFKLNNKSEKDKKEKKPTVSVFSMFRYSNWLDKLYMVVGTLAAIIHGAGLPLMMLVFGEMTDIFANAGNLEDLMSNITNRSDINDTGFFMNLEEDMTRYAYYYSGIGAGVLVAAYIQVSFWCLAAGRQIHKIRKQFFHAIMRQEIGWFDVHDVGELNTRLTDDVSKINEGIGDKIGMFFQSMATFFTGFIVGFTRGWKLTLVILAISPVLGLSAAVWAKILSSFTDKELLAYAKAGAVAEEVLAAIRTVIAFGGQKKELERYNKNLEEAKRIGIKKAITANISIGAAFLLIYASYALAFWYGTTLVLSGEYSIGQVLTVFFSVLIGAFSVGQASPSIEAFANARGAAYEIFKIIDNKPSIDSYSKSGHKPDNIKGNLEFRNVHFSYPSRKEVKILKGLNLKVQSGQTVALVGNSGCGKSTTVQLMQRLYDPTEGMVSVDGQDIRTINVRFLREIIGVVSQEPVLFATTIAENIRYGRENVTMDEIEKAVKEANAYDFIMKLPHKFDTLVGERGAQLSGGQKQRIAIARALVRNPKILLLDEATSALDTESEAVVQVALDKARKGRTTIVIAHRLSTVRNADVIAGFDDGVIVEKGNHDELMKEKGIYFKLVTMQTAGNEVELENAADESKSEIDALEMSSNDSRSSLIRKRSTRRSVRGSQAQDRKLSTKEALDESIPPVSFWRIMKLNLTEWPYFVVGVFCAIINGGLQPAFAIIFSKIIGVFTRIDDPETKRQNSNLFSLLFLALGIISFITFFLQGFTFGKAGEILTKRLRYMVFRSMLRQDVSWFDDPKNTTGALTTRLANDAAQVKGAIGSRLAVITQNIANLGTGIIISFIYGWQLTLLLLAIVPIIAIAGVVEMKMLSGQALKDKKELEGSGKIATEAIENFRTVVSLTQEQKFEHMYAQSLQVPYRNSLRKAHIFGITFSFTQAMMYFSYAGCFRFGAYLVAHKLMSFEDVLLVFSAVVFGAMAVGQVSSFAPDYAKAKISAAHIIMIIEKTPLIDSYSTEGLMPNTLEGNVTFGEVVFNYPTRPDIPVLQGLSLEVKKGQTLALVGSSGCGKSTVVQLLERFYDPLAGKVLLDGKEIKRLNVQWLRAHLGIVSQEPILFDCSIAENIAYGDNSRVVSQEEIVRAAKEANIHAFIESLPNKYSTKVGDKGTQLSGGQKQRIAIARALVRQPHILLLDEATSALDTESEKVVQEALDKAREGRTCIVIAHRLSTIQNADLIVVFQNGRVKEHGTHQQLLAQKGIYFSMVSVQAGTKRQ
compound,measurement,setting,value
"CC(N)Cc1cccc(C(F)(F)F)c1.Cl (stereo not drawn) [nFFA, [1‐(3‐trifluoromethyl)phenyl]propan‐2‐amine hydrochloride]",% inhibition (- NADPH),[1]; 30-min preincubation in the absence of NADPH,82%
same,% inhibition (+ NADPH),[1]; 30-min preincubation in the presence of NADPH,80%
same,IC50,"[1]; read-out: IC50 (+ NADPH), 30-min preincubation in the presence of NADPH",17 ± 1 µM
same,IC50,"[1]; read-out: IC50 (- NADPH), 30-min preincubation in the absence of NADPH",15 ± 1 µM
same,IC50,"[2]; HEK293, probe [3H]-estrone-3-sulfate 50 nM, read-out: IC50",> 50 µM
same,"% as effective as the positive control, omeprazole (CYP1A2 mRNA)",[3]; [8],< 20%
same,fold change in CYP1A2 mRNA levels,[3]; [8],< 2 fold
same,Fold‐change method: Potential to induce,[3]; hepatocytes HC7‐8,No
same,Fold‐change method: Fold change,[3]; hepatocytes HC7‐8,1.74 fold
same,Fold‐change method: % of control,[3]; hepatocytes HC7‐8,2.35%
same,Fold‐change method: Potential to induce,[3]; hepatocytes HC10‐8,No
same,Fold‐change method: Fold change,[3]; hepatocytes HC10‐8,1.92 fold
same,Fold‐change method: % of control,[3]; hepatocytes HC10‐8,1.79%
same,Fold‐change method: Potential to induce,[3]; hepatocytes HC10‐10,No
same,Fold‐change method: Fold change,[3]; hepatocytes HC10‐10,1.86 fold
same,Fold‐change method: % of control,[3]; hepatocytes HC10‐10,1.96%
same,CYP2B6 induction (abstract),[4],up to 2.0 fold
same,Basic kinetic model: Potential to induce,[4]; hepatocytes HC7‐8,No
same,Fold‐change method: Potential to induce,[4]; hepatocytes HC7‐8,Yes
same,Static mechanistic model: Potential to induce,[4]; hepatocytes HC7‐8,No (AUCR <0.8 to denote induction)
same,Fold‐change method: Fold change,[4]; hepatocytes HC7‐8,2.15 fold
same,Basic kinetic model: R3,[4]; hepatocytes HC7‐8,0.92
same,Fold‐change method: % of control,[4]; hepatocytes HC7‐8,10.60%
same,Basic kinetic model: Emax (fold),[4]; hepatocytes HC7‐8,1.14 ± 0.083 fold
same,EC50,[4]; hepatocytes HC7‐8,10.8 ± 2.3 µM
same,Basic kinetic model: Potential to induce,[4]; hepatocytes HC10‐8,No
same,Fold‐change method: Potential to induce,[4]; hepatocytes HC10‐8,Yes
same,Static mechanistic model: Potential to induce,[4]; hepatocytes HC10‐8,No (AUCR <0.8 to denote induction)
same,Fold‐change method: Fold change,[4]; hepatocytes HC10‐8,3.01 fold
same,Basic kinetic model: R3,[4]; hepatocytes HC10‐8,0.93
same,Fold‐change method: % of control,[4]; hepatocytes HC10‐8,21.20%
same,Basic kinetic model: Emax (fold),[4]; hepatocytes HC10‐8,2.08 ± 0.197 fold
same,EC50,[4]; hepatocytes HC10‐8,26.4 ± 2.9 µM
same,Basic kinetic model: Potential to induce,[4]; hepatocytes HC10‐10,No
same,Fold‐change method: Potential to induce,[4]; hepatocytes HC10‐10,Yes
same,Static mechanistic model: Potential to induce,[4]; hepatocytes HC10‐10,No (AUCR <0.8 to denote induction)
same,Fold‐change method: Fold change,[4]; hepatocytes HC10‐10,2.54 fold
same,Basic kinetic model: R3,[4]; hepatocytes HC10‐10,0.88
same,Fold‐change method: % of control,[4]; hepatocytes HC10‐10,21.60%
same,Basic kinetic model: Emax (fold),[4]; hepatocytes HC10‐10,1.36 ± 0.11 fold
same,EC50,[4]; hepatocytes HC10‐10,8.81 ± 1.6 µM
same,IC50,"[5]; direct inhibition, human liver microsomes, substrate diclofenac",> 100 µM
same,Basic model: Potential for clinical inhibition,[5]; substrate diclofenac,No (Potential to inhibit if R1 ≥ 1.02)
same,Static mechanistic model: Potential for clinical inhibition,[5]; substrate diclofenac,No (Potential to inhibit if AUCR ≥ 1.25)
same,time- or metabolism-dependent inhibition of CYP450 enzyme activity,[6],did not have any additional inhibitory effects
same,IC50,"[7]; Caco-2, probe digoxin 10 µM, read-out: IC50",> 50 µM
"CCNC(C)Cc1cccc(C(F)(F)F)c1 (racemic) [FFA, (RS)‐ethyl(α‐methyl‐3‐trifluoromethylphenethyl)amine, reference compound]",IC50,"[1]; IC50 (+ NADPH), 30-min preincubation in the presence of NADPH",10 µM
same,IC50,"[1]; IC50 (- NADPH), 30-min preincubation in the absence of NADPH",4.5 µM
same,inhibition at 30 min,"[1]; % inhibition (+ NADPH), 30-min preincubation in the presence of NADPH",82%
same,inhibition at 30 min,"[1]; % inhibition (- NADPH), 30-min preincubation in the absence of NADPH",89%
same,IC50,[2],> 30 µM
same,"% as effective as the positive control, omeprazole (CYP1A2 mRNA)",[3]; [8],< 20%
same,CYP2B6 induction (abstract),[4],up to 2.8 fold
same,Basic kinetic model: Potential to induce,[4]; hepatocytes HC7‐8,No
same,Static mechanistic model: Potential to induce,[4]; hepatocytes HC7‐8,No (AUCR <0.8 to denote induction)
same,Basic kinetic model: R3,[4]; hepatocytes HC7‐8,0.87
same,Basic kinetic model: Potential to induce,[4]; hepatocytes HC10‐8,Yes
same,Static mechanistic model: Potential to induce,[4]; hepatocytes HC10‐8,No (AUCR <0.8 to denote induction)
same,Basic kinetic model: R3,[4]; hepatocytes HC10‐8,0.77
same,Basic kinetic model: Potential to induce,[4]; hepatocytes HC10‐10,Yes
same,Static mechanistic model: Potential to induce,[4]; hepatocytes HC10‐10,No (AUCR <0.8 to denote induction)
same,Basic kinetic model: R3,[4]; hepatocytes HC10‐10,0.76
same,EC50 at 3 days,"[4]; lot HC7-8, hepatocytes HC7‐8",8.32 ± 2.1 µM
same,EC50 at 3 days,"[4]; lot HC10-8, hepatocytes HC10‐8",13.6 ± 1.5 µM
same,EC50 at 3 days,"[4]; lot HC10-10, hepatocytes HC10‐10",4.61 ± 3.3 µM
same,IC50,[5],> 60 µM
same,Inhibition (%),"[5]; direct inhibition, substrate diclofenac, FFA up to 60 µM, nFFA up to 100 µM",2.4%
same,Basic model: Potential for clinical inhibition,[5]; substrate diclofenac,No (Potential to inhibit if R1 ≥ 1.02)
same,Static mechanistic model: Potential for clinical inhibition,[5]; substrate diclofenac,No (Potential to inhibit if AUCR ≥ 1.25)
same,Basic model: R1,"[5]; substrate diclofenac, R1 = 1 + (Imax,u/Ki,u)",1.01
same,time- or metabolism-dependent inhibition of CYP450 enzyme activity,[6],did not have any additional inhibitory effects
same,IC50,[7],> 100 µM
